# Laboratory results: patent US3959248A, “Analogs of thyrotropin-releasing hormone” (Merck & Co., Inc., priority 1975, dated 1976)
# Experiments:
# thyrotropin release = test: thyrotropin releasing hormone activity (TS, thyrotropin stimulation), in vivo assay; details: multiple of the control TS activity of TRH, which has the value 1
# Procedure: (§1) The tripeptides of the present invention are found to have anti-depressant activity and thyrotropin releasing hormone activity. Their activity as anti-depressants is as central nervous system (CNS) stimulants and was determined by testing representative tripeptides of the present invention using in vivo assay based on restoration of anti-convulsant action of methazolamide in picolinic acid treated mice. The thyrotropin releasing hormone activity of the present tripeptides was determined using the in vivo assay substantially as described in "Vitamins and Hormone" R.S. Harris et al, 29, 3-4 (1971).
# (§2) The following table contains activity data for a number of representative peptides of the present invention. The protocols used to obtain the data were those described above. The results are expressed numerically as multiples of the TS (thyrotropin stimulation) and AD (anti-depressant) activity compared to the control TS and AD activities of TRH which have the value 1. The designation S.N. is used to indicate substantially no detectable activity at the dosage level tested.
# [1] = tested on: picolinic acid treated mice; test: anti-depressant (CNS stimulant) activity: restoration of anti-convulsant action of methazolamide in picolinic acid treated mice; details: multiple of the control AD activity of TRH, which has the value 1, in vivo
# Procedure: as §1, §2
compound,measurement,setting,value
"NC(=O)[C@@H]1CCCN1C(=O)[C@H](Cc1c[nH]cn1)NC(=O)[C@@H]1CCC(=O)N1 [TRH, L-pyroglutamyl-L-histidyl-L-proline amide]",TS (thyrotropin stimulation) activity,thyrotropin release,1
same,AD (anti-depressant) activity,[1],1
